Target: T1, Human TLR9 (Homo sapiens, UniProt Q9NR96)
T1 sequence (Q9NR96 26-1032): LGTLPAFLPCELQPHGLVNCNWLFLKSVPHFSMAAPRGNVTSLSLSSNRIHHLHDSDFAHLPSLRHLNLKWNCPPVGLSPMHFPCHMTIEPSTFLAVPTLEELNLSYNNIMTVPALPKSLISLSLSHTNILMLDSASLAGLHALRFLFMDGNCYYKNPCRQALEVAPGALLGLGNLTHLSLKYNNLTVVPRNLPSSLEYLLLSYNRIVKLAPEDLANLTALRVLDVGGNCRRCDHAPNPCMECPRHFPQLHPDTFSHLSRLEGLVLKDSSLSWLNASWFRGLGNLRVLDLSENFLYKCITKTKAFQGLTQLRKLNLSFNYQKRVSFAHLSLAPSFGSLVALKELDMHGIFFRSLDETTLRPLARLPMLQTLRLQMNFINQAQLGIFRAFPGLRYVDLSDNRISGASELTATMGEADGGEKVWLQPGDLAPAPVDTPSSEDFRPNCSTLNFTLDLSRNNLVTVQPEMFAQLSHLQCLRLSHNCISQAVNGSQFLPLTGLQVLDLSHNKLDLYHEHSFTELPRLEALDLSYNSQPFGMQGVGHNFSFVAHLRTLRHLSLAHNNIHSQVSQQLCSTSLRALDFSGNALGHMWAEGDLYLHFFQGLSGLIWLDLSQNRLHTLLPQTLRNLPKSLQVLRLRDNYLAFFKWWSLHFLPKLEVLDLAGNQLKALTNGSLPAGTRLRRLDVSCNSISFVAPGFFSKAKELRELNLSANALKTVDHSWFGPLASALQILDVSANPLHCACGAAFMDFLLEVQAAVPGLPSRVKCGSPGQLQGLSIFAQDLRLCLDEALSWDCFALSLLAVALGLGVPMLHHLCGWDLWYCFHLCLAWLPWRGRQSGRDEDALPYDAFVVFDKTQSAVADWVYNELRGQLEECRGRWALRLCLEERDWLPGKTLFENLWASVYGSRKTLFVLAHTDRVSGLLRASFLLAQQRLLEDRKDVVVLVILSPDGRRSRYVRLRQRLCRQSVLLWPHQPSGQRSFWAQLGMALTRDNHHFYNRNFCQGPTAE
Assay: HEK-293 NF-kappaB luciferase reporter assay, CpG-ODN stimulus
Type: cell-based
Set-up: engineered to stably and individually express human TLR4, TLR7 or TLR9 full-length ORF cDNAs; expressed in transfected cells; host or cells: HEK-293 (ATCC) with ELAM-1 NF-kappaB luciferase reporter
Details: ligand CpG-ODN, analyte NFkB-luciferase
Excerpt: In vitro pharmacology: HEK-293 cells (ATCC) were engineered to stably express a NF-kappaB transcription factor inducible E-selectin (ELAM-1) luciferase reporter derived from the plasmid pGL3 (Promega) containing base pairs −2241 bp to −254 bp from the promoter of the human E-selectin gene (Accession No. NM_000450). These cells were then subsequently engineered to stably and individually express human TLR4, TLR7 or TLR9 full-length ORF cDNAs. Human TLR4 cDNA (Accession No. NM_138554) was cloned into pcDNA 3.0 expression vector (Invitrogen). TLR4 transfected cells were also engineered to express human MD-2 co-receptor [MD-2 cDNA (Accession No. NM_015364) was cloned into the pEF-BOS vector] and were supplemented with 10 nM soluble CD14 (R&D Systems) in the media to optimize LPS responsiveness. Human TLR9 cDNA (Accession No. NM_017442) was cloned into the pBluescript II KS vector (Agilent). Human TLR7 cDNA (Accession No. NM_016562) was obtained from OriGene. HEK-293 cells stably expressing human TLR8 (Accession No. NM_138636) or mouse TLR7 (Accession No. NM_133211) were purchased from InvivoGen and were then stably transfected with pNiFty2(NF-kappaB)-luciferase reporter plasmid (InvivoGen). […]

COc1ccc([C@@H]2C[C@H](C(F)(F)F)n3nc(-c4ccc(C(=O)N5CCNCC5)cc4)cc3N2)cc1OC [ER-892887, (4-((5S,7R)-5-(3,4-dimethoxyphenyl)-7-(trifluoromethyl)-4,5,6,7-tetrahydropyrazolo[1,5-a]pyrimidin-2-yl)phenyl)(piperazin-1-yl)methanone]
IC50: > 10 µM

From US9126999B2, “Tetrahydropyrazolopyrimidine compounds” (EISAI R&D MANAGEMENT CO., LTD., priority 2012, dated 2015)
